Data taken from patent US20140094413A1, “HEPATOCYTE GROWTH FACTOR (HGF) MIMICS AS THERAPEUTIC AGENTS” (WASHINGTON STATE UNIVERSITY, priority 2012, published 2014).
Values joined by “and” are separate entries in the source; they are usually repeats but may differ in a detail not shown here. Equal entries are not always repeated. “Also recorded” adds a separate entry of the source. Where two headings read alike, the source gives them in different places. Where a SMILES comes first, the peptide text is derived from it. [ ]: non-standard residue; d: D form. dNle = CCCC[C@@H](N)C(=O)O; Ahx = NCCCCCC(=O)O

Legend:
[1] = Microsomal metabolism; type: in vitro ADME, rat; conditions: over 90 min; data not shown
[2] = test system: MDCK cells; assay: Inhibition of HGF-dependent scattering in MDCK cells; type: cell-based, canine; conditions: HGF 20 ng/ml, 48 h
Protocol: MDCK cells were grown to 100% confluency on the coverslips in six-well plates and washed twice with PBS. The confluent coverslips were then aseptically transferred to new six well plates containing 900 μl serum free DMEM. Norleual, Hinge peptide, and/or HGF (20 ng/ml) were added to appropriate wells. Control wells received PBS vehicle. Plates were incubated at 37° C. with 5% CO2 for 48 h. Media was removed and cells were fixed with methanol. Cells were stained with Diff-Quik Wright-Giemsa (Dade-Behring, Newark, Del.) and digital images were taken. Coverslips were removed with forceps and more digital images were captured. Pixel quantification of images was achieved using Image J and statistics were performed using Prism 5 and InStat v.3.05 (GraphPad; San Diego, Calif.).

[3] = rat
Protocol: Male Sprague-Dawley rats (250+ g) were allowed food (Harlan Teklad rodent diet) and water ad libitum in our AAALAC certified animal facility. Rats were housed in temperature-controlled rooms with a 12 h light/dark cycle. The right jugular veins of the rats were catheterized with sterile polyurethane Hydrocoat™ catheters (Access Technologies, Skokie, Ill., USA) under ketamine (Fort Dodge Animal Health, Fort Dodge, Iowa, USA) and isoflurane (Vet One™, MWI, Meridian, Id., USA) anesthesia. The catheters were exteriorized through the dorsal skin. The catheters were flushed with heparinized saline before and after blood sample collection and filled with heparin-glycerol locking solution (6 mL glycerol, 3 mL saline, 0.5 mL gentamycin (100 mg/mL), 0.5 mL heparin (10,000 u/mL)) when not used for more than 8 h. The animals were allowed to recover from surgery for several days before use in any experiment, and were fasted overnight prior to the pharmacokinetic experiment.
Catheterized rats were placed in metabolic cages prior to the start of the study and time zero blood samples were collected. […] After dosing, blood samples were collected as follows (times and blood volumes collected are listed in chronological order):
After each blood sample was taken, the catheter was flushed with saline solution and a volume of saline equal to the volume of blood taken was injected (to maintain total blood volume).
Upon collection into polypropylene microfuge tubes without heparin, blood samples were immediately centrifuged at 4° C., 2300×g for 5 min to remove any cells and clots and the serum transferred into clean microcentrifuge tubes. A volume of internal standard (Nle^1-AngIV, 100 μg/mL) equal to 0.1 times the sample serum volume was added. A volume of ice-cold acetonitrile equal to four times the sample serum volume was then added and the sample vortexed vigorously for 30 s. The supernatants were transferred to clean tubes, then held on ice until the end of the experiment, and stored at 4° C. afterward until further processing.
All samples were evaporated to dryness in a Savant SpeedVac® concentrator. […] The samples were then transferred to HPLC autosampler vials and 100 μl was injected into the HPLC system a total of 2 times (2 HPLC/MS analyses) for each sample.
Data collection and integration were achieved using Shimadzu LCMS solution software. The analytical column used was an Econosphere C18 (100 mm×2.1 mm) from Grace Davison Discovery Science (Deerfield, Ill., USA). The mobile phase consisted of HPLC grade methanol and water with 0.1% trifluoroacetic acid. Separation was carried out using a non-isocratic method (40%-50% methanol over 10 min) at ambient temperature and a flow rate of 0.3 mL/min. […] Data were normalized based on the recovery of the internal standard.
Pharmacokinetic analysis was performed using data from individual rats. The mean and standard deviation (SD) were calculated for the group.

[4] = test system: Met; assay: Inhibition of HGF-dependent Met phosphorylation in HEK293 cells; type: cell-based, human; conditions: 10 min with HGF+/− analog
Protocol: HEK293 cells were seeded in 6 well tissue culture plates and grown to 95% confluency in DMEM containing 10% FBS. The cells were serum deprived for 24 h prior to the treatment to reduce the basal levels of phospho-Met. Following serum starvation, cocktails comprised of vehicle and HGF with/without 6-AH analogs were prepared and pre-incubated for 30 min at room temperature. The cocktail was then added to the cells for 10 min to stimulate the Met receptor and downstream proteins. Cells were harvested using RIPA lysis buffer (Millipore; Billerica, Mass.) fortified with phosphatase inhibitor cocktails 1 and 2 (Sigma-Aldrich; St. Louis, Mo.). The lysate was clarified by centrifugation at 15,000 nx g for 15 min, protein concentrations were determined using the BCA total protein assay (Pierce), and then appropriate volumes of the lysates were diluted with 2× reducing Laemmli buffer and heated for ten min at 95° C. Samples containing identical amounts of protein were resolved using SDS-PAGE (Criterion, BioRad Laboratories), transferred to nitrocellulose, and blocked in Tris-buffered saline (TBS) containing 5% milk for 1 h at room temperature. The phospho-Met antibody were added to the blocking buffer at a final concentration of 1:1000 and incubated at 4° C. overnight with gentle agitation. The membranes were then washed several times with water and TBS ([…], 0.05% Tween-20), a 1:5000 dilution of horseradish-peroxidase conjugated goat anti-rabbit antiserum was added, and the membranes further incubated for 1 h at room temperature. Proteins were visualized using the Supersignal West Pico Chemiluminescent Substrate system (Pierce, Fenton, Mo.) and molecular weights determined by comparison to protein ladders (BenchMark, Invitrogen, and Kaleidoscope, BioRad). Film images were digitized and analyzed using a UVP phosphoimager.

[5] = target: T1, human HGF (Homo sapiens, UniProt P14210); assay: HGF dimerization; type: biochemical; conditions: analogs at 10^−10 M, heparin, 30 minute incubation
T1 construct: purchased R&D Systems (Minneapolis, Minn.)
T1 sequence (P14210 32-728): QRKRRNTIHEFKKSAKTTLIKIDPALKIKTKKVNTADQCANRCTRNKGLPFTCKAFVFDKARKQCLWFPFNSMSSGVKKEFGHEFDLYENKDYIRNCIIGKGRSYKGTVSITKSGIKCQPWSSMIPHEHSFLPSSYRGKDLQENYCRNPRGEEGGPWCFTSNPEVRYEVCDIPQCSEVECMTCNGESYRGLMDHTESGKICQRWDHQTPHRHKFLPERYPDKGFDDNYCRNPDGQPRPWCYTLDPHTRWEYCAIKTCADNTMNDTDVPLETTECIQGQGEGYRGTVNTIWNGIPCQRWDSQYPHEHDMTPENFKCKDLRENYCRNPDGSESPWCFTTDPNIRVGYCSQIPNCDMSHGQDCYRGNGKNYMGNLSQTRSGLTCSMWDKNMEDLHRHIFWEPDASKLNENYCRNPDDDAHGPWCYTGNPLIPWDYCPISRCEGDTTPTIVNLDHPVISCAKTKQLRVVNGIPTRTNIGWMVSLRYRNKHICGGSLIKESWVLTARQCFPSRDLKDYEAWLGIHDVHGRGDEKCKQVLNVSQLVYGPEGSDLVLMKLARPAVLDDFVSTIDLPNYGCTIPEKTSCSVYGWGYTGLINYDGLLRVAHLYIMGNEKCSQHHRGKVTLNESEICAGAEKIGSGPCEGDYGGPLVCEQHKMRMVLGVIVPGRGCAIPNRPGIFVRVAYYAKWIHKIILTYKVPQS
Protocol: HGF dimerization was assessed using PAGE followed by silver staining (Kawas et al., 2011). Human HGF at a concentration of 0.08 ng/μl with or without 6-AH analogs was incubated with heparin at a final concentration of 5 μg/ml. Loading buffer was then added to each sample and the mixture separated by native PAGE using gradient Criterion XT precast gels (4-12% Bis-Tris; Biorad Laboratories, Hercules, Calif.). Next the gel was silver stained for the detection of the HGF monomers and dimers. Bands were quantitated from digital images using a UVP phosphoimager (Upland, Calif.).

[6] = Blood stability studies; conditions: heparinized rat blood, 37° C.; single phase exponential decay
Protocol: (§1) At the end of each incubation, 20 μL of Nle^1-AngIV (100 μg/mL) was added to each sample as an internal standard. […] All samples were centrifuged at 4° C., 2300×g for 5 min and the supernatants were transferred to clean tubes.
(§2) Samples were then separated by HPLC on an Econosphere C18 (100 mm×2.1 mm) from Grace Davison Discovery Science (Deerfield, Ill.). […] The mobile phase consisted of HPLC water (Sigma St. Louis, Mo.) with 0.1% trifluoroacetic or 0.1% heptafluorobutyric acid (Sigma St. Louis, Mo.) and varying concentrations of ACN or methanol. Separation was carried out using a gradient method, at ambient temperature and a flow rate of 0.3 mL/min (see below for more information). Stability half-lives were determined assuming a normal single phase exponential decay using Prism 5 graphical/statistical program (GraphPad, San Diego, Calif.).

[7] = target: T1, human HGF; assay: HGF binding, competition with 3H-Hinge; conditions: 1.25 ng HGF, 40 min at 37° C.; N=9
Protocol: The binding of 6-AH analogs to HGF was assessed by competition using a soluble binding assay. 250 μl of PBS containing human HGF (1.25 ng) were incubated with ^3H-Hinge, the central dimerization domain of HGF, in the presence of varying concentrations of 6-AH analogs between 10^−13 M to 10^−7M (half-log dilutions) for 40 min at 37° C. The incubates were then spun through Bio-Gel P6 spin columns (400 μl packed volume) for 1 min to separate free and bound ^3H-Hinge and the eluent was collected. Five milliliters of scintillation fluid was added to the eluent, which contained the HGF bound ^3H-Hinge, and was then counted using scintillation counter. Total disintegrations per minute of bound ^3H-Hinge were calculated based on machine counting efficiency. The Ki values for the binding of the peptides were determined using the Prism 5. Competition binding curves were performed in triplicate.

[8] = test system: MDCK cells; assay: HGF-dependent MDCK cell proliferation (MTT); type: cell-based, canine; conditions: analogs at 10^−10M, HGF 10 ng/ml, 4 days
Protocol: 5000 MDCK cells were seeded into the wells of a 96 well plates in 10% FBS DMEM. To induce cellular quiescence, the cells were serum deprived for 24 h prior to initiating the treatments. Following serum starvation, 10 ng/ml HGF alone and with various concentrations of 6-AH analogs or PBS vehicle were added to the media. The cells were allowed to grow under these conditions for 4 days with a daily addition of 6-AH analogs. On the fourth day, 1 mg/ml of […] (MTT, Sigma-Aldrich) prepared in PBS was added to the cells and incubated for 4 h. Dimethyl sulfoxide diluted in a 0.01M glycine buffer was added to solubilize the cell membranes and the absorbance of reduced MTT in the buffer was quantitated at 590 nm using a plate reader (Biotek Synergy 2, Winooski, Vt.). HGF-dependent proliferation was determined by subtracting the basal proliferation (in the absence of HGF) from total proliferation rates in groups containing HGF.

[9] = test system: B16-F10 murine melanoma cells; assay: B16-F10 melanoma lung colony formation; type: in vivo, mouse; conditions: C57BL/6 mice, daily IP 10 μg/kg/day or 100 μg/kg/day, 14 days
Protocol: Six to eight month old C57BL/6 mice were injected with 400,000 B16-F10 cells in 200 μl PBS by tail vein injection and subsequently received daily intraperitoneal injections of either D-Nle-X-Cys-NH—(CH2)5—CONH2 ([…]) or a PBS vehicle control. Two weeks later, mice were anesthetized and lungs were perfused with PBS and removed. Photos were taken and lungs were solubilized in 1% Triton x-100, 20 mM Tris, 0.15 M NaCl, 2 mM EDTA, and 0.02% sodium azide. Samples were disrupted by sonication (Mixonix, Farmingdale, N.Y.) and spun. The supernatant was transferred to a 96 well plate and melanin absorbance at 410 nm was measured using a plate reader.

[10] = rat; remark: listed apart in the source
Protocol: as §1, §2

Compound	Phase I metabolism in rat liver microsomes [1]	Inhibition of HGF-dependent MDCK cell scattering [2]	Total recovery from serum ([3]; in vivo)	AUC(0-inf) ([3]; in vivo, iv, 24 mg/kg)	C0 ([3]; in vivo, iv, 24 mg/kg)	KE (rate of elimination) ([3]; in vivo, iv, 24 mg/kg)	Vd ([3]; in vivo, iv, 24 mg/kg)	clearance ([3]; in vivo, iv, 24 mg/kg)	t1/2 (in vivo elimination half-life) ([3]; iv, 24 mg/kg)	Inhibition of HGF-dependent Met phosphorylation [4]	Inhibition of HGF dimerization [5]	Inhibition of HGF dimerization ([5]; listed as Tyr)	Stability t1/2 in blood [6]	Ki [7]	Inhibition of HGF-dependent MDCK cell proliferation [8]	Inhibition of B16-F10 melanoma lung colonization [9]	Inhibition of B16-F10 melanoma lung colonization ([9]; listed as D-Nle-Cys-Ile-(6)-amino-hexanoic amide)	Inhibition of HGF dimerization ([5]; listed as Cys)	Stability t1/2 in blood [10]
CCCC[C@@H](N)C(=O)N[C@@H](Cc1ccc(O)cc1)C(=O)N[C@H](C(=O)NCCCCCC(N)=O)[C@@H](C)CC (H-[dNle]YI[Ahx]-NH2)	no detectable metabolism	different from the HGF alone group but not different from the control group	greater than 35%	11500 ng·h/mL	68.2 ± 32.2 µg/mL	0.001 ± 0.0002 min − 1	104 ± 65 L/kg	58.3 ± 15.6 mL/min/kg	1012 min	able to block Met auto-phosphorylation	completely block HGF dimer formation	statistically different than the HGF treated group	80 min and 79.97 min	0.243 nM	marked inhibitory activity				
CCCC[C@@H](N)C(=O)N[C@@H](CS)C(=O)N[C@H](C(=O)NCCCCCC(N)=O)[C@@H](C)CC [D-Nle-Cys-Ile-NH—(CH2)5—CONH2] (H-[dNle]CI[Ahx]-NH2)		different from the HGF alone group but not different from the control group								able to block Met auto-phosphorylation	completely block HGF dimer formation			0.133 nM	marked inhibitory activity	suppressed pulmonary colonization; also recorded: radically prevented lung colonization	obvious reduction in melanoma colonies	statistically different than the HGF treated group	
CCCC[C@H](N)C(=O)N[C@@H](Cc1ccc(O)cc1)C(=O)N[C@H](CN[C@@H](Cc1c[nH]cn1)C(=O)N1CCC[C@H]1C(=O)N[C@@H](Cc1ccccc1)C(=O)O)CC(C)C [Norleual, Nle-Tyr-Leu-Ψ-(CH2—NH2)^3-4-His-Pro-Phe]																			4.6 min
